Measurements as given in US8575091B1, “Amylin analogues and pharmaceutical compositions thereof” (Novo Nordisk A/S, priority 2012, dated 2013).
Numbered stars: 1 amine (or outer) side, 2 acyl side, 3 side chain; on linkers, the order of the positions; unused ones are H or OH. Bridge positions count the residues as written; N and C are the ends. Side chains are listed from the residue outwards. Peptide text beside a SMILES is read from it. * marks the point of attachment. C20 diacid = O=C(O)CCCCCCCCCCCCCCCCCCC(=O)*; γGlu = O=C(O)[C@H](CCC(=O)[*:2])N[*:1]

Target: T1, human amylin receptor (amylin 3(a) receptor: human calcitonin receptor + RAMP-3) (Homo sapiens, UniProt O60896+P30988)
T1 construct: expressed in transfected cells
T1 sequence (P30988 25-474): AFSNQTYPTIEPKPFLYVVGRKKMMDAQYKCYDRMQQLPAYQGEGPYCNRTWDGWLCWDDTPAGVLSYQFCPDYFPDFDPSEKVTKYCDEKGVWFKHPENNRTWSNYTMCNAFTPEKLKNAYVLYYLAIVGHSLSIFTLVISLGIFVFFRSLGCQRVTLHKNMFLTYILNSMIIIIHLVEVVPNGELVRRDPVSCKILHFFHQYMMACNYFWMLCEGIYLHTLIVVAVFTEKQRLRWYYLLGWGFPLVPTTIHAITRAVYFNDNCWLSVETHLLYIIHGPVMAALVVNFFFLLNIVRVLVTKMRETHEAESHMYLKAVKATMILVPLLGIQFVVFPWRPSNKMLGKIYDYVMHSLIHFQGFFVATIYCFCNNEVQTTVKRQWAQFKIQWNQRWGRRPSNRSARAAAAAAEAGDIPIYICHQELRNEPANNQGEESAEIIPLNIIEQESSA
T1 sequence (O60896 24-148 partner): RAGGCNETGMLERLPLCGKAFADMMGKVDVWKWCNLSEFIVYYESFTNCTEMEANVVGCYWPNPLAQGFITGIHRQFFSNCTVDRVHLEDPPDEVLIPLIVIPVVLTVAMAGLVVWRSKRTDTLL
Test: Assay (II)a functional assay, human amylin receptor (CRE luciferase, BHK cells)
Type: cell-based

[1] = Table 6, human functional selectivity (hCTR EC50 / hAmylin-R EC50)
[2] = Table 6a, human functional selectivity (hCTR EC50 / hAmylin-R EC50), at least 5
[3] = Table 6j, hCTR funct. EC50 / hAmylin-R funct. EC50
[4] = Table 6k, hCTR funct. EC50 / hAmylin-R funct. EC50

| Structure (SMILES) | Ratio hCT/hAmylin funct. [1] | Ratio hCT/hAmylin funct. [2] | Ratio hCT/hAmylin funct. (hCTR funct. EC50 divided by hAmylin-R funct. EC50) | Ratio hCT/hAmylin funct. (Table 6i, hCTR funct. EC50 / hAmylin-R funct. EC50) | Ratio hCT/hAmylin funct. [3] | Ratio hCT/hAmylin funct. [4] |
| --- | --- | --- | --- | --- | --- | --- |
| CC(C)C[C@H](NC(=O)[C@H](CCCNC(=N)N)NC(=O)[C@H](CCC(N)=O)NC(=O)[C@@H](NC(=O)[C@H](C)NC(=O)[C@@H]1CSSC[C@H](NC(=O)[C@@H](N)CCCCNC(=O)CC[C@H](NC(=O)CC[C@H](NC(=O)CCCCCCCCCCCCCCCCCCC(=O)O)C(=O)O)C(=O)O)C(=O)N[C@@H](CC(N)=O)C(=O)N[C@@H]([C@@H](C)O)C(=O)N[C@@H](C)C(=O)N[C@@H]([C@@H](C)O)C(=O)N1)[C@@H](C)O)C(=O)N[C@@H](C)C(=O)N[C@@H](CC(=O)O)C(=O)N[C@@H](Cc1ccccc1)C(=O)N[C@@H](CC(C)C)C(=O)N[C@@H](CCCNC(=N)N)C(=O)N[C@@H](Cc1c[nH]cn1)C(=O)N[C@@H](CO)C(=O)N[C@@H](CO)C(=O)N1CCC[C@H]1C(=O)N[C@@H](CC(N)=O)C(=O)N[C@@H](Cc1ccccc1)C(=O)NCC(=O)N[C@@H](C)C(=O)N1CCC[C@H]1C(=O)N[C@@H](CC(C)C)C(=O)N[C@@H](CO)C(=O)N[C@@H](CO)C(=O)N[C@H](C(=O)N[C@@H](CC(N)=O)C(=O)N[C@H](C(=O)NCC(=O)N[C@@H](CO)C(=O)N[C@@H](CC(=O)O)C(=O)N[C@H](C(=O)N[C@@H](Cc1ccc(O)cc1)C(N)=O)[C@@H](C)O)C(C)C)[C@@H](C)O [Example 1] (H-K([γGlu-γGlu-C20 diacid])CNTATCATQRLADFLRHSSPNFGAPLSSTNVGSDTY-NH2; disulfide 2-7; N-terminus assumed) | 12.0 | 12.0 | 12.0 | – | – | – |
| CC[C@H](C)[C@H](NC(=O)[C@H](C)NC(=O)CNC(=O)[C@H](Cc1ccccc1)NC(=O)[C@H](CC(N)=O)NC(=O)[C@@H]1CCCN1C(=O)[C@H](CO)NC(=O)[C@H](CO)NC(=O)[C@H](Cc1c[nH]cn1)NC(=O)[C@H](CCCNC(=N)N)NC(=O)[C@H](CC(C)C)NC(=O)[C@H](Cc1ccccc1)NC(=O)[C@H](CCC(=O)O)NC(=O)[C@H](C)NC(=O)[C@H](CC(C)C)NC(=O)[C@H](CCCNC(=N)N)NC(=O)[C@H](CCC(N)=O)NC(=O)[C@@H](NC(=O)[C@H](C)NC(=O)[C@@H]1CSSC[C@H](NC(=O)[C@H](CCCCN)NC(=O)CC[C@H](NC(=O)CCCCCCCCCCCCCCCCCCC(=O)O)C(=O)O)C(=O)N[C@@H](CC(N)=O)C(=O)N[C@@H]([C@@H](C)O)C(=O)N[C@@H](C)C(=O)N[C@@H]([C@@H](C)O)C(=O)N1)[C@@H](C)O)C(=O)N1CCC[C@H]1C(=O)N[C@@H](CO)C(=O)N[C@@H](CO)C(=O)N[C@H](C(=O)N[C@@H](CC(N)=O)C(=O)N[C@H](C(=O)NCC(=O)N[C@@H](Cc1c[nH]cn1)C(=O)N[C@@H](CC(N)=O)C(=O)N[C@H](C(=O)N[C@@H](Cc1ccc(O)cc1)C(N)=O)[C@@H](C)O)C(C)C)[C@@H](C)O [Example 17] ({C20 diacid-γGlu}-KCNTATCATQRLAEFLRHSSPNFGAIPSSTNVGHNTY-NH2; disulfide 2-7) | 8.8 | 8.8 | – | 8.8 | 8.8 | 8.8 |
| CC[C@H](C)[C@H](NC(=O)[C@H](C)NC(=O)CNC(=O)[C@H](Cc1ccccc1)NC(=O)[C@H](CC(N)=O)NC(=O)[C@@H]1CCCN1C(=O)[C@H](CO)NC(=O)[C@H](CO)NC(=O)[C@H](Cc1c[nH]cn1)NC(=O)[C@H](CCCNC(=N)N)NC(=O)[C@H](CC(C)C)NC(=O)[C@H](Cc1ccccc1)NC(=O)[C@H](CC(N)=O)NC(=O)[C@H](C)NC(=O)[C@H](CC(C)C)NC(=O)[C@H](CCCNC(=N)N)NC(=O)[C@H](CCC(N)=O)NC(=O)[C@@H](NC(=O)[C@H](C)NC(=O)[C@@H]1CSSC[C@H](NC(=O)[C@H](CCCCN)NC(=O)CC[C@H](NC(=O)CCCCCCCCCCCCCCCCCCC(=O)O)C(=O)O)C(=O)N[C@@H](CC(N)=O)C(=O)N[C@@H]([C@@H](C)O)C(=O)N[C@@H](C)C(=O)N[C@@H]([C@@H](C)O)C(=O)N1)[C@@H](C)O)C(=O)N1CCC[C@H]1C(=O)N[C@@H](CO)C(=O)N[C@@H](CO)C(=O)N[C@H](C(=O)N1CCC[C@H]1C(=O)N[C@H](C(=O)NCC(=O)N[C@@H](CO)C(=O)N[C@@H](CCC(=O)O)C(=O)N[C@H](C(=O)N[C@@H](Cc1ccc(O)cc1)C(N)=O)[C@@H](C)O)C(C)C)[C@@H](C)O [Example 28] ({C20 diacid-γGlu}-KCNTATCATQRLANFLRHSSPNFGAIPSSTPVGSETY-NH2; disulfide 2-7) | 9.2 | 9.2 | – | – | 9.2 | 9.2 |
| CC[C@H](C)[C@H](NC(=O)[C@H](C)NC(=O)CNC(=O)[C@H](Cc1ccccc1)NC(=O)[C@H](CC(N)=O)NC(=O)[C@@H]1CCCN1C(=O)[C@H](CO)NC(=O)[C@H](CO)NC(=O)[C@H](Cc1c[nH]cn1)NC(=O)[C@H](CCCNC(=N)N)NC(=O)[C@H](CC(C)C)NC(=O)[C@H](Cc1ccccc1)NC(=O)[C@H](CC(N)=O)NC(=O)[C@H](C)NC(=O)[C@H](CC(C)C)NC(=O)[C@H](CCCNC(=N)N)NC(=O)[C@H](CCC(N)=O)NC(=O)[C@@H](NC(=O)[C@H](C)NC(=O)[C@@H]1CSSC[C@H](NC(=O)[C@@H](N)CCCCNC(=O)CC[C@H](NC(=O)CCCCCCCCCCCCCCCCCCC(=O)O)C(=O)O)C(=O)N[C@@H](CC(N)=O)C(=O)N[C@@H]([C@@H](C)O)C(=O)N[C@@H](C)C(=O)N[C@@H]([C@@H](C)O)C(=O)N1)[C@@H](C)O)C(=O)N1CCC[C@H]1C(=O)N[C@@H](CO)C(=O)N[C@@H](CO)C(=O)N[C@H](C(=O)N[C@@H](CC(N)=O)C(=O)N[C@H](C(=O)NCC(=O)N[C@@H](CO)C(=O)N[C@@H](CCCCN)C(=O)N[C@H](C(=O)N[C@@H](Cc1ccc(O)cc1)C(N)=O)[C@@H](C)O)C(C)C)[C@@H](C)O [Example 35] (H-K([γGlu-C20 diacid])CNTATCATQRLANFLRHSSPNFGAIPSSTNVGSKTY-NH2; disulfide 2-7; N-terminus assumed) | 15.0 | 15.0 | – | – | 15.0 | 15.0 |
| CC[C@H](C)[C@H](NC(=O)[C@H](C)NC(=O)CNC(=O)[C@H](Cc1ccccc1)NC(=O)[C@H](CC(N)=O)NC(=O)[C@@H]1CCCN1C(=O)[C@H](CO)NC(=O)[C@H](CO)NC(=O)[C@H](Cc1c[nH]cn1)NC(=O)[C@H](CCCNC(=N)N)NC(=O)[C@H](CC(C)C)NC(=O)[C@H](Cc1ccccc1)NC(=O)[C@H](CC(N)=O)NC(=O)[C@H](C)NC(=O)[C@H](CC(C)C)NC(=O)[C@H](CCCNC(=N)N)NC(=O)[C@H](CCC(N)=O)NC(=O)[C@@H](NC(=O)[C@H](C)NC(=O)[C@@H]1CSSC[C@H](NC(=O)[C@@H](N)CCCCNC(=O)COCCOCCNC(=O)CCCCCCCCCCCCCCCCCCC(=O)O)C(=O)N[C@@H](CC(N)=O)C(=O)N[C@@H]([C@@H](C)O)C(=O)N[C@@H](C)C(=O)N[C@@H]([C@@H](C)O)C(=O)N1)[C@@H](C)O)C(=O)N1CCC[C@H]1C(=O)N[C@@H](CO)C(=O)N[C@@H](CO)C(=O)N[C@H](C(=O)N[C@@H](CC(N)=O)C(=O)N[C@H](C(=O)NCC(=O)N[C@@H](CO)C(=O)N[C@@H](CC(N)=O)C(=O)N[C@H](C(=O)N[C@@H](Cc1ccc(O)cc1)C(N)=O)[C@@H](C)O)C(C)C)[C@@H](C)O [Example 43] | 6.5 | 6.5 | – | – | 6.5 | 6.5 |
